Data published in patent US8802597B2, “Herbicidal pyrimidines” (E I du Pont de Nemours and Company, priority 2003, dated 2014).
Where two headings read alike, the source gives them in different places.

What was measured:
Test in all cases: Test C pre/postemergence
Format in all cases: in vivo
[1] = test system: cocklebur (Xanthium strumarium); settings: for pest or weed control at 16 g/ha / pest or weed control at 31 g/ha / pest or weed control at 62 g/ha / pest or weed control at 125 g/ha: Xanthium strumarium; for pest or weed control at 16 g/ha: 16 g ai/ha; for pest or weed control at 31 g/ha: 31 g ai/ha
Excerpt: (§1) Seeds or nutlets of plant species selected from bermudagrass (Cynodon dactylon), Surinam grass (Brachiaria decumbens), cocklebur (Xanthium strumarium), corn (Zea mays), crabgrass (Digitaria sanguinalis), woolly cupgrass (Eriochloa villosa), giant foxtail (Setaria faberii), goosegrass (Eleusine indica), johnsongrass (Sorghum halepense), kochia (Kochia scoparia), lambsquarters (Chenopodium album), morningglory (Ipomoea coccinea), eastern black nightshade (Solanum ptycanthum), yellow nutsedge (Cyperus esculentus), pigweed (Amaranthus retroflexus), common ragweed (Ambrosia elatior), soybean (Glycine max), common (oilseed) sunflower (Helianthus annuus), and velvetleaf (Abutilon theophrasti) were planted and treated preemergence with test chemicals formulated in a non-phytotoxic solvent mixture which included a surfactant.
(§2) At the same time, plants selected from these crop and weed species and also winter barley (Hordeum vulgare), blackgrass (Alopecurus myosuroides), canarygrass (Phalaris minor), chickweed (Stellaria media), downy brome (Bromus tectorum), green foxtail (Setaria viridis), Italian ryegrass (Lolium multiflorum), wheat (Triticum aestivum), wild oat (Avena fatua) and windgrass (Apera spica-venti) were treated with postemergence applications of some of the test chemicals formulated in the same manner. Plants ranged in height from 2 to 18 cm (1- to 4-leaf stage) for postemergence treatments. Plant species in the flooded paddy test consisted of rice (Oryza sativa), umbrella sedge (Cyperus difformis), duck salad (Heteranthera limosa) and barnyardgrass (Echinochloa crus-galli) grown to the 2-leaf stage for testing. Treated plants and controls were maintained in a greenhouse for 12 to 14 days, after which time all species were compared to controls and visually evaluated. Plant response ratings, summarized in Table C, are based on a scale of 0 to 100 where 0 is no effect and 100 is complete control. A dash (-) response means no test result.

[2] = test system: crabgrass (Digitaria sanguinalis); settings: for pest or weed control at 16 g/ha / pest or weed control at 31 g/ha / pest or weed control at 62 g/ha / pest or weed control at 125 g/ha: Digitaria sanguinalis; for pest or weed control at 16 g/ha: 16 g ai/ha; for pest or weed control at 31 g/ha: 31 g ai/ha
Excerpt: as §1, §2

[3] = test system: johnsongrass (Sorghum halepense); settings: for pest or weed control at 16 g/ha / pest or weed control at 31 g/ha / pest or weed control at 62 g/ha / pest or weed control at 125 g/ha: Sorghum halepense; for pest or weed control at 16 g/ha: 16 g ai/ha; for pest or weed control at 31 g/ha: 31 g ai/ha
Excerpt: as §1, §2

kochia (Kochia scoparia) = settings: for pest or weed control at 16 g/ha / pest or weed control at 31 g/ha / pest or weed control at 62 g/ha / pest or weed control at 125 g/ha: Bassia scoparia; for pest or weed control at 16 g/ha: 16 g ai/ha; for pest or weed control at 31 g/ha: 31 g ai/ha
Excerpt: as §1, §2

[4] = test system: pigweed (Amaranthus retroflexus); settings: for pest or weed control at 16 g/ha / pest or weed control at 31 g/ha / pest or weed control at 62 g/ha / pest or weed control at 125 g/ha: Amaranthus retroflexus; for pest or weed control at 16 g/ha: 16 g ai/ha; for pest or weed control at 31 g/ha: 31 g ai/ha
Excerpt: as §1, §2

[5] = post-emergence, Postemergence, read-out: Plant response rating (scale of 0 to 100), Cocklebur
[6] = pre-emergence, Preemergence, scale 0 to 100, 0 no effect, 100 complete control, read-out: Plant response rating, Cocklebur
[7] = post-emergence, Postemergence, read-out: Plant response rating (scale of 0 to 100), Crabgrass
[8] = pre-emergence, Preemergence, scale 0 to 100, 0 no effect, 100 complete control, read-out: Plant response rating, Crabgrass
[9] = post-emergence, Postemergence, read-out: Plant response rating (scale of 0 to 100), Johnsongrass
[10] = pre-emergence, Preemergence, scale 0 to 100, 0 no effect, 100 complete control, read-out: Plant response rating, Johnsongrass
[11] = post-emergence, Postemergence, read-out: Plant response rating (scale of 0 to 100), Kochia
[12] = pre-emergence, Preemergence, scale 0 to 100, 0 no effect, 100 complete control, read-out: Plant response rating, Kochia
[13] = post-emergence, Postemergence, read-out: Plant response rating (scale of 0 to 100), Pigweed
[14] = pre-emergence, Preemergence, scale 0 to 100, 0 no effect, 100 complete control, read-out: Plant response rating, Pigweed
[15] = Postemergence, 62 g ai/ha, scale 0 to 100 (0 no effect, 100 complete control)
[16] = Postemergence, 125 g ai/ha, scale 0 to 100 (0 no effect, 100 complete control)
[17] = Postemergence, 250 g ai/ha, scale 0 to 100
[18] = Postemergence, 500 g ai/ha, scale 0 to 100
[19] = Preemergence, 62 g ai/ha, scale 0 to 100, 0 no effect, 100 complete control
[20] = Preemergence, 125 g ai/ha, scale 0 to 100
[21] = Preemergence, 250 g ai/ha, scale 0 to 100
[22] = Preemergence, 500 g ai/ha, scale 0 to 100

## COC(=O)c1nc(C2CC2)nc(N)c1F [Compound 25]
[1]; [5]
  pest or weed control at 16 g/ha: 70%
  pest or weed control at 31 g/ha: 85%
[1]; post-emergence, Postemergence, 62 g ai/ha, scale 0 to 100 (0 no effect, 100 complete control), read-out: Cocklebur plant response rating
  pest or weed control at 62 g/ha: 90%
[1]; post-emergence, Postemergence, 125 g ai/ha, scale 0 to 100 (0 no effect, 100 complete control), read-out: Cocklebur plant response rating
  pest or weed control at 125 g/ha: 90%
[1]; [6]
  pest or weed control at 16 g/ha: 0%
  pest or weed control at 31 g/ha: 20%
[1]; pre-emergence, Preemergence, 62 g ai/ha, scale 0 to 100, 0 no effect, 100 complete control, read-out: Plant response rating, Cocklebur
  pest or weed control at 62 g/ha: 60%
[1]; pre-emergence, Preemergence, 125 g ai/ha, scale 0 to 100, read-out: Plant response rating, Cocklebur
  pest or weed control at 125 g/ha: 85%
[2]; [7]
  pest or weed control at 16 g/ha: 0%
  pest or weed control at 31 g/ha: 0%
[2]; post-emergence, Postemergence, 62 g ai/ha, scale 0 to 100 (0 no effect, 100 complete control), read-out: Crabgrass plant response rating
  pest or weed control at 62 g/ha: 30%
[2]; post-emergence, Postemergence, 125 g ai/ha, scale 0 to 100 (0 no effect, 100 complete control), read-out: Crabgrass plant response rating
  pest or weed control at 125 g/ha: 50%
[2]; [8]
  pest or weed control at 16 g/ha: 0%
  pest or weed control at 31 g/ha: 0%
[2]; pre-emergence, Preemergence, 62 g ai/ha, scale 0 to 100, 0 no effect, 100 complete control, read-out: Plant response rating, Crabgrass
  pest or weed control at 62 g/ha: 0%
[2]; pre-emergence, Preemergence, 125 g ai/ha, scale 0 to 100, read-out: Plant response rating, Crabgrass
  pest or weed control at 125 g/ha: 0%
[3]; [9]
  pest or weed control at 16 g/ha: 0%
  pest or weed control at 31 g/ha: 10%
[3]; post-emergence, Postemergence, 62 g ai/ha, scale 0 to 100 (0 no effect, 100 complete control), read-out: Johnsongrass plant response rating
  pest or weed control at 62 g/ha: 10%
[3]; post-emergence, Postemergence, 125 g ai/ha, scale 0 to 100 (0 no effect, 100 complete control), read-out: Johnsongrass plant response rating
  pest or weed control at 125 g/ha: 20%
[3]; [10]
  pest or weed control at 16 g/ha: 0%
  pest or weed control at 31 g/ha: 0%
[3]; pre-emergence, Preemergence, 62 g ai/ha, scale 0 to 100, 0 no effect, 100 complete control, read-out: Plant response rating, Johnsongrass
  pest or weed control at 62 g/ha: 0%
[3]; pre-emergence, Preemergence, 125 g ai/ha, scale 0 to 100, read-out: Plant response rating, Johnsongrass
  pest or weed control at 125 g/ha: 0%
Kochia (Kochia scoparia); [11]
  pest or weed control at 16 g/ha: 10%
  pest or weed control at 31 g/ha: 80%
Kochia (Kochia scoparia); post-emergence, Postemergence, 62 g ai/ha, scale 0 to 100 (0 no effect, 100 complete control), read-out: Kochia plant response rating
  pest or weed control at 62 g/ha: 85%
Kochia (Kochia scoparia); post-emergence, Postemergence, 125 g ai/ha, scale 0 to 100 (0 no effect, 100 complete control), read-out: Kochia plant response rating
  pest or weed control at 125 g/ha: 85%
Kochia (Kochia scoparia); [12]
  pest or weed control at 16 g/ha: 0%
  pest or weed control at 31 g/ha: 0%
Kochia (Kochia scoparia); pre-emergence, Preemergence, 62 g ai/ha, scale 0 to 100, 0 no effect, 100 complete control, read-out: Plant response rating, Kochia
  pest or weed control at 62 g/ha: 5%
Kochia (Kochia scoparia); pre-emergence, Preemergence, 125 g ai/ha, scale 0 to 100, read-out: Plant response rating, Kochia
  pest or weed control at 125 g/ha: 70%
[4]; [13]
  pest or weed control at 16 g/ha: 50%
  pest or weed control at 31 g/ha: 50%
[4]; post-emergence, Postemergence, 62 g ai/ha, scale 0 to 100 (0 no effect, 100 complete control), read-out: Pigweed plant response rating
  pest or weed control at 62 g/ha: 80%
[4]; post-emergence, Postemergence, 125 g ai/ha, scale 0 to 100 (0 no effect, 100 complete control), read-out: Pigweed plant response rating
  pest or weed control at 125 g/ha: 100%
[4]; [14]
  pest or weed control at 16 g/ha: 0%
  pest or weed control at 31 g/ha: 30%
[4]; pre-emergence, Preemergence, 62 g ai/ha, scale 0 to 100, 0 no effect, 100 complete control, read-out: Plant response rating, Pigweed
  pest or weed control at 62 g/ha: 35%
[4]; pre-emergence, Preemergence, 125 g ai/ha, scale 0 to 100, read-out: Plant response rating, Pigweed
  pest or weed control at 125 g/ha: 85%

## Nc1nc(C2CC2)nc(C=NO)c1Br [Compound 27]
[1]; [15]
  Cocklebur plant response rating: 20
[1]; [16]
  Cocklebur plant response rating: 25
[1]; [17]
  Plant response rating, Cocklebur: 25
[1]; [18]
  Plant response rating, Cocklebur: 25
[1]; [19]
  Plant response rating, Cocklebur: 0
[1]; [20]
  Plant response rating, Cocklebur: 50
[1]; [21]
  Plant response rating, Cocklebur: 70
[1]; [22]
  Plant response rating, Cocklebur: 95
[2]; [15]
  Crabgrass plant response rating: 0
[2]; [16]
  Crabgrass plant response rating: 0
[2]; [17]
  Plant response rating, Crabgrass: 5
[2]; [18]
  Plant response rating, Crabgrass: 30
[2]; [19]
  Plant response rating, Crabgrass: 0
[2]; [20]
  Plant response rating, Crabgrass: 0
[2]; [21]
  Plant response rating, Crabgrass: 0
[2]; [22]
  Plant response rating, Crabgrass: 85
[3]; [15]
  Johnsongrass plant response rating: 0
[3]; [16]
  Johnsongrass plant response rating: 0
[3]; [17]
  Plant response rating, Johnsongrass: 0
[3]; [18]
  Plant response rating, Johnsongrass: 0
[3]; [19]
  Plant response rating, Johnsongrass: 0
[3]; [20]
  Plant response rating, Johnsongrass: 20
[3]; [21]
  Plant response rating, Johnsongrass: 45
[3]; [22]
  Plant response rating, Johnsongrass: 65
Kochia (Kochia scoparia); [15]
  Kochia plant response rating: 0
Kochia (Kochia scoparia); [16]
  Kochia plant response rating: 20
Kochia (Kochia scoparia); [17]
  Plant response rating, Kochia: 50
Kochia (Kochia scoparia); [18]
  Plant response rating, Kochia: 60
Kochia (Kochia scoparia); [19]
  Plant response rating, Kochia: 0
Kochia (Kochia scoparia); [20]
  Plant response rating, Kochia: 0
Kochia (Kochia scoparia); [21]
  Plant response rating, Kochia: 30
Kochia (Kochia scoparia); [22]
  Plant response rating, Kochia: 45
[4]; [15]
  Pigweed plant response rating: 5
[4]; [16]
  Pigweed plant response rating: 20
[4]; [17]
  Plant response rating, Pigweed: 30
[4]; [18]
  Plant response rating, Pigweed: 80
[4]; [19]
  Plant response rating, Pigweed: 20
[4]; [20]
  Plant response rating, Pigweed: 80
[4]; [21]
  Plant response rating, Pigweed: 90
[4]; [22]
  Plant response rating, Pigweed: 100

## COC(=O)c1nc(C2CC2C)nc(N)c1Br (centres unmarked) [Compound 28]
[1]; [15]
  Cocklebur plant response rating: 85
[1]; [16]
  Cocklebur plant response rating: 95
[1]; [17]
  Plant response rating, Cocklebur: 95
[1]; [18]
  Plant response rating, Cocklebur: 100
[1]; [19]
  Plant response rating, Cocklebur: 90
[1]; [20]
  Plant response rating, Cocklebur: 95
[1]; [21]
  Plant response rating, Cocklebur: 95
[1]; [22]
  Plant response rating, Cocklebur: 100
[2]; [15]
  Crabgrass plant response rating: 0
[2]; [16]
  Crabgrass plant response rating: 0
[2]; [17]
  Plant response rating, Crabgrass: 0
[2]; [18]
  Plant response rating, Crabgrass: 20
[3]; [15]
  Johnsongrass plant response rating: 0
[3]; [16]
  Johnsongrass plant response rating: 0
[3]; [17]
  Plant response rating, Johnsongrass: 0
[3]; [18]
  Plant response rating, Johnsongrass: 0
[3]; [21]
  Plant response rating, Johnsongrass: 0
Kochia (Kochia scoparia); [15]
  Kochia plant response rating: 75
Kochia (Kochia scoparia); [16]
  Kochia plant response rating: 85
Kochia (Kochia scoparia); [17]
  Plant response rating, Kochia: 95
Kochia (Kochia scoparia); [18]
  Plant response rating, Kochia: 95
Kochia (Kochia scoparia); [19]
  Plant response rating, Kochia: 0
Kochia (Kochia scoparia); [20]
  Plant response rating, Kochia: 80
Kochia (Kochia scoparia); [21]
  Plant response rating, Kochia: 90
Kochia (Kochia scoparia); [22]
  Plant response rating, Kochia: 100
[4]; [15]
  Pigweed plant response rating: 30
[4]; [16]
  Pigweed plant response rating: 35
[4]; [17]
  Plant response rating, Pigweed: 60
[4]; [18]
  Plant response rating, Pigweed: 75
[4]; [19]
  Plant response rating, Pigweed: 80
[4]; [20]
  Plant response rating, Pigweed: 95
[4]; [21]
  Plant response rating, Pigweed: 100
[4]; [22]
  Plant response rating, Pigweed: 100
